Test results reported in patent US10800741B2 (ANCUREALL PHARMACEUTICAL (SHANGHAI) CO., LTD., priority 2017, dated 2020).

Key:
[1] = test system: KATO III (FGFR2 amp); assay: In vitro growth inhibition of KATO III tumor cells (MTT/CCK8); format: cell-based, Human; conditions: Homo sapiens, KATO III; in vitro growth inhibition (or induction of apoptosis), cells cultured 3 to 5 days, MTT (CCK8); read-out: IC50 KATO III (FGFR2 amp)
[2] = test system: Hep3B2 (FGFR3/4+++); assay: In vitro growth inhibition of Hep3B2 tumor cells (MTT/CCK8); format: cell-based, Human; conditions: Homo sapiens, Hep3B; in vitro growth inhibition (or induction of apoptosis), cells cultured 3 to 5 days, MTT (CCK8); read-out: IC50 Hep3B2 (FGFR3/4+++)
[3] = test system: H1703 (PDGFRa amp); assay: In vitro growth inhibition of H1703 tumor cells (MTT/CCK8); format: cell-based, Human; conditions: Homo sapiens, NCI-H1703; in vitro growth inhibition (or induction of apoptosis), cells cultured 3 to 5 days, MTT (CCK8); read-out: IC50 H1703 (PDGFRa amp)
[4] = test system: RS4:11; assay: In vitro growth inhibition of FLT3 wild type overexpressing cells RS4:11; format: cell-based; conditions: Homo sapiens, cells over expressing FLT3 wild-type
Method: (§1) Adherent cells were digested with 0.25% trypsin-EDTA (Gibco). Suspension culture cells were collected by centrifugation (1700 rpm, 3 minutes). The supernatant was discarded and the cells were counted. According to each cell growth cycle, different concentrations of cells were prepared (5˜10×10^4 cells per ml), and inoculated to 96-well plates (Corning), with 100 μl per well, and incubated overnight at 37° C., 5% CO2. The next day, the test compound was added to the cultured cells (2 wells in parallel). The final concentration of the solvent was less than 1/1,000. The cells were further cultured for 3 to 5 days and assayed by MTT.
(§2) The MTT test reagent was a Dojindo CCK8 kit and the Microplate Reader was a THERMO […] FC instrument.
(§3) The adherent cells were taken out from the cell culture medium, and immediately added to a freshly prepared complete medium containing 10% CCK8 (5% FBS), 100 ul per hole. The suspended cells were directly added to a CCK8 reagent until reaching a final concentration of 10% and cultured for 1 to 4 hours. When a dark yellow color could be observed in the solvent control wells, the absorbance value at OD450 nm was measured and the cell growth rate was calculated according to the following formula: Cell Growth Rate (%)=100×(T−T0)/(C−T0)
(§4) T=optical density of drug-treated cell wells−optical density of blank control wells; T0=optical density of cell wells before drug treatment−optical density of blank control wells; C=optical density of solvent control wells−optical density of blank control wells. […] The experiments were repeated 1 to 3 times and a statistical analysis of data was conducted.
(§5) The present compounds which has a high growth inhibition activity on tumor cells positive expressing FLT3-ITD were selected for the determination of IC50 concentration on FLT3 wild tyoverexpressing cells RS4:11 and FLT3 wild-type normal expressing cells Jurkat. The specific test method is the same as that of test example 1.

[5] = test system: H1581 (FGFR1 amp); assay: In vitro growth inhibition of H1581 tumor cells (MTT/CCK8); format: cell-based, Human; conditions: Homo sapiens, NCI-H1581; in vitro growth inhibition (or induction of apoptosis), cells cultured 3 to 5 days, MTT (CCK8); read-out: IC50 H1581 (FGFR1 amp)
[6] = test system: KCL-22 (BCR-ABL); assay: In vitro growth inhibition of KCL-22 tumor cells (MTT/CCK8); format: cell-based, Human; conditions: Homo sapiens, KCL-22; in vitro growth inhibition (or induction of apoptosis), cells cultured 3 to 5 days, MTT (CCK8); read-out: IC50 KCL-22 (BCR-ABL)
[7] = test system: MOLM-13 (FLT3-ITD); assay: In vitro growth inhibition of MOLM-13 tumor cells (MTT/CCK8); format: cell-based, Human; conditions: Homo sapiens, MOLM-13; in vitro growth inhibition (or induction of apoptosis), cells cultured 3 to 5 days, MTT (CCK8); read-out: IC50 MOLM-13 (FLT3-ITD)
[8] = test system: Jurkat; assay: In vitro growth inhibition of FLT3 wild-type normal expressing cells Jurkat; format: cell-based; conditions: Homo sapiens, cells normally expressing FLT3 wild-type
Method: as §1, §2, §3, §4, §5

[9] = test system: Karpas 299 (NPM-ALK); assay: In vitro growth inhibition of Karpas 299 tumor cells (MTT/CCK8); format: cell-based, Human; conditions: Homo sapiens, KARPAS-299; in vitro growth inhibition (or induction of apoptosis), cells cultured 3 to 5 days, MTT (CCK8); read-out: IC50 Karpas 299 (NPM-ALK)
[10] = test system: Kasumi-1 (KIT N822K); assay: In vitro growth inhibition of Kasumi-1 tumor cells (MTT/CCK8); format: cell-based, Human; conditions: Homo sapiens, Kasumi 1; in vitro growth inhibition (or induction of apoptosis), cells cultured 3 to 5 days, MTT (CCK8); read-out: IC50 Kasumi-1 (KIT N822K)
[11] = test system: human intestinal cancer cell line HCT116 (KRAS G13D mutation); assay: Growth inhibition in combination with MEK1/2 inhibitor Trametinib, HCT116 (KRAS G13D mutation); format: cell-based; conditions: 5 days
Method: (§6) Test Example 5 Synergistic Inhibition Effect of the Present Compounds in Combination with MEK1/2 Inhibitor on the Growth of RAS Mutant Tumor Cells In Vitro
(§7) The cell culture, drug treatment and MTT assay of human intestinal cancer cell line HCT116 (KRAS G13D mutation) and human non-small cell lung cancer cell line NCI-H1299 (NRAS Q61K mutation) were performed according to the method of test example 1. Cells were treated with the MEK1/2 inhibitor Trametinib at 25 nM, 2.5 nM and 0.25 nM alone or in combination with compound 66 or 125 of the present invention (5 days).

[12] = test system: human non-small cell lung cancer cell line NCI-H1299 (NRAS Q61K mutation); assay: Growth inhibition in combination with MEK1/2 inhibitor Trametinib, NCI-H1299 (NRAS Q61K mutation); format: cell-based; conditions: 5 days
Method: as §6, §7

[13] = compound 7.8 nM + Trametinib 0.25 nM
[14] = compound 7.8 nM + Trametinib 2.5 nM
[15] = compound 7.8 nM + Trametinib 25 nM
[16] = compound 15.6 nM + Trametinib 0.25 nM
[17] = compound 15.6 nM + Trametinib 2.5 nM
[18] = compound 15.6 nM + Trametinib 25 nM

Row | SMILES | IC50 [1] | IC50 [2] | IC50 [3] | IC50 [4] | IC50 [5] | IC50 [6] | IC50 [7] | IC50 [8] | IC50 [9] | IC50 [10] | other results
1 | CNC(=O)c1cc2c(Oc3ccc(NC(=O)Nc4cc(C(C)(C)C)n[nH]4)cc3C)ccnc2cc1OC [Compound 52, 4-{4-[3-(5-tert-butyl-2H-pyrazol-3-yl)-ureido]-2-methyl-phenoxy}-7-methoxyquinolin-6-carboxylate acid methylamide] | 3.28 nM | 175 nM | 62.4 nM | > 1000 nM | 107 nM | 7.11 nM | 0.06 nM | > 1000 nM | 203 nM | 3.83 nM | 
2 | COc1cc2nccc(Oc3ccc(NC(=O)Nc4cc(C(C)(C)C)n[nH]4)c(Cl)c3Cl)c2cc1C(N)=O [Compound 37, 4-{4-[3-(5-tert-butyl-2H-pyrazol-3-yl)-ureido]-2,3-dichloro-phenoxy}-7-methoxyquinolin-6-carboxamide] | 0.19 nM | 9.6 nM | 6.44 nM | 139 nM | 4.73 nM | 0.498 nM | 0.97 nM | 408 nM | 52.3 nM | 2.05 nM | 
3 | COc1cc2nccc(Oc3ccc(NC(=O)Nc4cc(C(C)(C)C)on4)cc3F)c2cc1C(N)=O [Compound 9, 4-{4-[3-(5-tert-butyl-isoxazol-3-yl)-ureido]-2-fluoro-phenoxy}-7-methoxyquinolin-6-carboxamide] | 1.39 nM | 47.6 nM | 18.5 nM | 750 nM | 9.59 nM | 35.8 nM | < 0.05 nM | 409 nM | 352 nM | 144 nM | 
4 | CNC(=O)c1cc2c(Oc3ccc(NC(=O)Nc4cc(C(C)(C)C)n[nH]4)cc3Cl)ccnc2cc1OC [Compound 54, 4-{4-[3-(5-tert-butyl-2H-pyrazol-3-yl)-ureido]-2-chloro-phenoxy}-7-methoxyquinolin-6-carboxylic acid methylamide] | 5.5 nM | 153 nM | 71.5 nM | 531 nM | 53.4 nM | 23.9 nM | 0.27 nM |  | 114 nM | 26.1 nM | 
5 | COc1cc2nccc(Oc3ccc(NC(=O)Nc4cc(C(C)(C)C)on4)cc3Cl)c2cc1C(N)=O [Compound 8, 4-{4-[3-(5-tert-butyl-isoxazol-3-yl)-ureido]-2-chloro-phenoxy}-7-methoxyquinolin-6-carboxamide] | 2.93 nM | 45.6 nM | 17.5 nM | 370 nM | 19.5 nM | 18.7 nM | < 0.05 nM | 288 nM | 142 nM | 35.1 nM | 
6 | COc1cc2nccc(Oc3ccc(NC(=O)Nc4cc(C(C)(C)C)on4)cc3Br)c2cc1C(N)=O [Compound 7, 4-{2-Bromo-4-[3-(5-tert-butyl-isoxazol-3-yl)-ureido]-phenoxy}-7-methoxyquinolin-6-carboxamide] | 6.33 nM | 83.9 nM | 19.4 nM | 375 nM | 55.4 nM | 19.8 nM | < 0.05 nM | 302 nM | 187 nM | 46 nM | 
7 | COc1cc2nccc(Oc3ccc(NC(=O)Nc4cc(C(C)(C)C)n[nH]4)cc3F)c2cc1NC(C)=O [Compound 102, N-(4-{4-[3-(5-tert-butyl-2H-pyrazol-3-yl)-ureido]-2-fluoro-phenoxy}-7-methoxy-quinolin-6-yl)-acetamide] | 1.32 nM | 75.8 nM | 71.2 nM | 500 nM | 8.39 nM | 10.2 nM | < 0.05 nM |  | > 1000 nM | 97.5 nM | 
8 | COCCOc1cc2nccc(Oc3ccc(NC(=O)Nc4cc(C(C)(C)C)nn4C4CC4)c(Cl)c3)c2cc1NC(C)=O [Compound 125] | 0.23 nM |  |  |  | 1.06 nM |  | 1.2 nM |  |  |  | inhibition at 0.0078 µM ([11]; Homo sapiens, HCT-116, 120 h, compound 7.8 nM alone (solvent instead of Trametinib), read-out: cell growth inhibition (percentage)): 14.5%; inhibition at 0.0156 µM ([11]; Homo sapiens, HCT-116, 120 h, compound 15.6 nM alone (solvent instead of Trametinib), read-out: cell growth inhibition (percentage)): 19.9%; cell growth inhibition (percentage) [11, 13]: 62.54%; cell growth inhibition (percentage) [11, 14]: 76.01%; cell growth inhibition (percentage) [11, 15]: 82.04%; cell growth inhibition (percentage) [11, 16]: 71.98%; cell growth inhibition (percentage) [11, 17]: 79.72%; cell growth inhibition (percentage) [11, 18]: 82.82%; inhibition at 0.0078 µM ([12]; Homo sapiens, NCI-H1299, 120 h, compound 7.8 nM alone (solvent instead of Trametinib), read-out: cell growth inhibition (percentage)): 1.63%; inhibition at 0.0156 µM ([12]; Homo sapiens, NCI-H1299, 120 h, compound 15.6 nM alone (solvent instead of Trametinib), read-out: cell growth inhibition (percentage)): 6.5%; cell growth inhibition (percentage) [12, 13]: 9.27%; cell growth inhibition (percentage) [12, 14]: 24.38%; cell growth inhibition (percentage) [12, 15]: 46.25%; cell growth inhibition (percentage) [12, 16]: 19.92%; cell growth inhibition (percentage) [12, 17]: 34.72%; cell growth inhibition (percentage) [12, 18]: 58.26%
